Assay: recombinant UMI read abundance after kanamycin selection (control-corrected) (log10(CPM+1)); higher = more efficient recombination; extreme values may be limits of the assay; sequences stand for … in AGTGCAGAGAAAATCGGCCAGTTTTCTCTGCCTGCAGTCCGCATGCCGTGGGACCCCTTGGGTTCTAACCTGTTGCCTAGATTTATGCAGCGGACTGCCTTTCTCCCAAAGTGATAAACCGG…AGGTTGGTTTCACT; site = the 11-nt donor
Procedure, shortened: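 Each donor and donor-binding-loop pair was tracked by a 12-nt UMI on a plasmid carrying a promoterless kanamycin gene. With a second plasmid supplying a fixed target and T7-inducible IS621 bridge recombinase, the pool was plated in Escherichia coli on IPTG (0.07 mM) plus kanamycin or unselected. Sequencing of recombinant UMIs across the donor–target junction gave counts expressed as log10(CPM+1) after replicate averaging and control-derived scaling.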
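Note: IS621 bridge recombinase in Escherichia coli cells against a fixed T5 target plasmid.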

Sequence | recombinant UMI read abundance (log10)
CTGTCTTCATGGACCGGTTTTCCCGGTAATCCGTATTTGGG (site CTGTCTTCTCC) | 0.0096
CTGTGAACATGGACCGGTTTTCCCGGTAATCCGTATTTGTT (site CTGTGAACTAA) | 1.15
CTTACTACATGGACCGGTTTTCCCGGTAATCCGTATTTGGA (site CTTACTACTTC) | 0.205
CTTAGGCCATGGACCGGTTTTCCCGGTAATCCGTATTTGAA (site CTTAGGCCTTT) | 0.104
CTTATCTCATGGACCGGTTTTCCCGGTAATCCGTATTTGTA (site CTTATCTCTTA) | 2.27
CTTATCTCATGGACCGGTTTTCCCGGTAATCCGTATTTGTA (site CTTCTCTCTTA) | 0.475
CTTATCTCATGGACCGGTTTTCCCGGTAATCCGTATTTGTA (site CTTGTCTCTTA) | 0.606
CTTATCTCATGGACCGGTTTTCCCGGTAATCCGTATTTGTA (site CTTTTCTCTTA) | 0.00641
CTTCACACATGGACCGGTTTTCCCGGTAATCCGTATTTGTA (site CTTCACACTTA) | 0.61
CTTCCGCCATGGACCGGTTTTCCCGGTAATCCGTATTTGAG (site CTTCCGCCTCT) | 0.0295
CTTCGACCATGGACCGGTTTTCCCGGTAATCCGTATTTGCA (site CTTCGACCTTG) | 0
CTTCGAGCATGGACCGGTTTTCCCGGTAATCCGTATTTGTT (site CTTCGAGCTAA) | 1.59
CTTCGTCCATGGACCGGTTTTCCCGGTAATCCGTATTTGTT (site CTTCGTCCTAA) | 0.0114
CTTCTATCATGGACCGGTTTTCCCGGTAATCCGTATTTGTA (site CTTCTATCTTA) | 1.62
CTTCTATCATGGACCGGTTTTCCCGGTAATCCGTATTTGTA (site CTTCTCTCTTA) | 0.0109
CTTCTATCATGGACCGGTTTTCCCGGTAATCCGTATTTGTA (site CTTCTGTCTTA) | 0
CTTCTATCATGGACCGGTTTTCCCGGTAATCCGTATTTGTA (site CTTCTTTCTTA) | 0
CTTCTCACATGGACCGGTTTTCCCGGTAATCCGTATTTGTA (site CTTCTCACTTA) | 0.336
CTTCTCACATGGACCGGTTTTCCCGGTAATCCGTATTTGTA (site CTTCTCCCTTA) | 0.00809

Sequence | recombinant UMI read abundance (log10)
CTTCTCACATGGACCGGTTTTCCCGGTAATCCGTATTTGTA (site CTTCTCGCTTA) | 0.0103
CTTCTCACATGGACCGGTTTTCCCGGTAATCCGTATTTGTA (site CTTCTCTCTTA) | 0
CTTCTCTCATGGACCGGTTTTCCCGGTAATCCGTATTTGCA (site CTTCTCTCTTA) | 0.866
CTTCTCTCATGGACCGGTTTTCCCGGTAATCCGTATTTGCA (site CTTCTCTCTTC) | 0
CTTCTCTCATGGACCGGTTTTCCCGGTAATCCGTATTTGCA (site CTTCTCTCTTG) | 2.46
CTTCTCTCATGGACCGGTTTTCCCGGTAATCCGTATTTGCA (site CTTCTCTCTTT) | 0.83
CTTCTCTCATGGACCGGTTTTCCCGGTAATCCGTATTTGCT (site CTTCTCTCTAG) | 2.48
CTTCTGCCATGGACCGGTTTTCCCGGTAATCCGTATTTGGG (site CTTCTGCCTCC) | 0.0114
CTTGACTCATGGACCGGTTTTCCCGGTAATCCGTATTTGTA (site CTTGACTCTTA) | 2.26
CTTGAGACATGGACCGGTTTTCCCGGTAATCCGTATTTGGT (site ATTGAGACTAC) | 0.141
CTTGAGACATGGACCGGTTTTCCCGGTAATCCGTATTTGGT (site CTTGAGACTAC) | 1.03
CTTGAGACATGGACCGGTTTTCCCGGTAATCCGTATTTGGT (site GTTGAGACTAC) | 0.00699
CTTGAGACATGGACCGGTTTTCCCGGTAATCCGTATTTGGT (site TTTGAGACTAC) | 0.00972
CTTGCATCATGGACCGGTTTTCCCGGTAATCCGTATTTGAT (site CTTGCATCTAT) | 0.497
CTTGCGGCATGGACCGGTTTTCCCGGTAATCCGTATTTGCT (site ATTGCGGCTAG) | 0.00273
CTTGCGGCATGGACCGGTTTTCCCGGTAATCCGTATTTGCT (site CTTGCGGCTAG) | 0.82
CTTGCGGCATGGACCGGTTTTCCCGGTAATCCGTATTTGCT (site GTTGCGGCTAG) | 0.00591
CTTGCGGCATGGACCGGTTTTCCCGGTAATCCGTATTTGCT (site TTTGCGGCTAG) | 0
CTTGCGGCATGGACCGGTTTTCCCGGTAATCCGTATTTGGG (site CTTGCGGCTCC) | 0.0147

Sequence | recombinant UMI read abundance (log10)
CTTGGTCCATGGACCGGTTTTCCCGGTAATCCGTATTTGCG (site CTTGGTCCTCG) | 0.00731
CTTGTGTCATGGACCGGTTTTCCCGGTAATCCGTATTTGGG (site CTTGTGTCTCC) | 0.208
GAAAACCCATGGACCGGTTTTCCCGGTAATCCGTATTTGAT (site GAAAACCCTAT) | 0
GAAAAGGCATGGACCGGTTTTCCCGGTAATCCGTATTTGTT (site GAAAAGGCTAA) | 2.58
GAAAATGCATGGACCGGTTTTCCCGGTAATCCGTATTTGAG (site GAAAATGCTCT) | 2.25
GAAACCACATGGACCGGTTTTCCCGGTAATCCGTATTTGGT (site GAAACCACTAC) | 0.48
GAAAGTCCATGGACCGGTTTTCCCGGTAATCCGTATTTGGA (site GAAAGTCCTTC) | 0.0128
GAACATACATGGACCGGTTTTCCCGGTAATCCGTATTTGGG (site GAACATACTCC) | 0.24
GAACGTACATGGACCGGTTTTCCCGGTAATCCGTATTTGCT (site GAACGTACTAG) | 2.26
GAAGATACATGGACCGGTTTTCCCGGTAATCCGTATTTGTT (site GAAGATACTAA) | 2.29
GAAGATACATGGACCGGTTTTCCCGGTAATCCGTATTTGTT (site GAAGATCCTAA) | 0.00569
GAAGATACATGGACCGGTTTTCCCGGTAATCCGTATTTGTT (site GAAGATGCTAA) | 0.602
GAAGATACATGGACCGGTTTTCCCGGTAATCCGTATTTGTT (site GAAGATTCTAA) | 0
GAAGATTCATGGACCGGTTTTCCCGGTAATCCGTATTTGTT (site AAAGATTCTAA) | 1.45
GAAGATTCATGGACCGGTTTTCCCGGTAATCCGTATTTGTT (site CAAGATTCTAA) | 1.81
GAAGATTCATGGACCGGTTTTCCCGGTAATCCGTATTTGTT (site GAAAATTCTAA) | 0.371
GAAGATTCATGGACCGGTTTTCCCGGTAATCCGTATTTGTT (site GAACATTCTAA) | 0
GAAGATTCATGGACCGGTTTTCCCGGTAATCCGTATTTGTT (site GAAGAATCTAA) | 1.3
GAAGATTCATGGACCGGTTTTCCCGGTAATCCGTATTTGTT (site GAAGACTCTAA) | 1.24

Reference: the supplement of paper PMC11208160
